# Patent publication US6469028B1, “Synthesis and use of retinoid compounds having negative hormone and/or anatgonist activities” (Allergan, Inc., priority 1995, dated 2002)
# Tests used:
# Experiment in all cases: Ligand binding assay
# RARβ = target: T1, RARβ (Homo sapiens, UniProt P10826); settings: read-out: Kd (nanomolar) RARβ
# T1 sequence (P10826 1-455): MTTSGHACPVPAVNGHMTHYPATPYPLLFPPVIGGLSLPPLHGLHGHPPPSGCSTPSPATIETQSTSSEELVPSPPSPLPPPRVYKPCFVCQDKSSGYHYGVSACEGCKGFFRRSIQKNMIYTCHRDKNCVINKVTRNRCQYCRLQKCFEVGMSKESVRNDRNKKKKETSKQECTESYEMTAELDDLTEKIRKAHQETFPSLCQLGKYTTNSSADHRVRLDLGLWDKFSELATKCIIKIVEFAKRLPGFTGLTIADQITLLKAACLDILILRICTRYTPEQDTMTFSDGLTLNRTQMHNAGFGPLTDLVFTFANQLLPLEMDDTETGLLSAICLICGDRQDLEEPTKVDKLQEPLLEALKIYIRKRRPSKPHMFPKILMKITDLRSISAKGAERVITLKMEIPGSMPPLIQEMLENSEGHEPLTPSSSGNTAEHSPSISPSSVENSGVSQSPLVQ
# From the text: (§1) A holoreceptor transactivation assay and a ligand binding assay which measure the antagonist/agonist like activity of the compounds of the invention, or their ability to bind to the several retinoid receptor subtypes, respectively, are described in published PCT Application No. WO93/11755 (particularly on pages 30-33 and 37-41) published on Jun. 24, 1993, the specification of which is also incorporated herein by reference. A description of the holoreceptor transactivation assay is also provided below.
# (§2) CV1 cells (5,000 cells/well) were transfected with an RAR reporter plasmid MTV-TREp-LUC (50 ng) along with one of the RAR expression vectors (10 ng) in an automated 96-well format by the calcium phosphate procedure of Heyman et al. Cell 68: 397-406. For RXR-α and RXR-γ transactivation assays, an RXR-responsive reporter plasmid CRBPII-tk-LUC (50 ng) along with the appropriate RXR expression vectors (10 ng) was used substantially as described by Heyman et al. above, and Allegretto et al. J. Biol. Chem. 268: 26625-26633. For RXR-β transactivation assays, an RXR-responsive reporter plasmid CPRE-tk-LUC ([…]) along with RXR-β expression vector ([…]) was used as described in above. These reporters contain DRI elements from human CRBPII and certain DRI elements from promotor, respectively (see Mangelsdorf et al. The Retinoids: Biology Chemistry and Medicine, pp. 319-349, Raven Press Ltd., New York and Heyman et al., cited above). A β-galactosidase (50 ng) expression vector was used as an internal control in the transfections to normalize for variations in transfection efficiency. The cells were transfected in triplicate for 6 hours, followed by incubation with retinoids for 36 hours, and the extracts were assayed for luciferase and […] activities. The detailed experimental procedure for holoreceptor transactivations has been described in Heyman et al. above, and Allegretto et al. cited above. The results obtained in this assay are expressed in EC50 numbers, as they are also in the chimeric receptor transactivation assay. The Heyman et al. Cell 68: 397-406, Allegretto et al. J. Biol. Chem. 268: 26625-26633, and Mangelsdorf et al. The Retinoids: Biology, Chemistry, and Medicine, pp. 319-349, Raven Press Ltd., New York, are expressly incorporated herein by reference. The results of ligand binding assay are expressed in Kd numbers. (See Cheng et al. Biochemical Pharmacology 22: 3099-3108, expressly incorporated herein by reference.) […]
# RARα = target: T2, RARα (Homo sapiens, UniProt P10276); parameters: expressed in transfected cells; host or cells: CV1 cells; settings: read-out: Kd (nanomolar) RARα
# T2 sequence (P10276 1-462): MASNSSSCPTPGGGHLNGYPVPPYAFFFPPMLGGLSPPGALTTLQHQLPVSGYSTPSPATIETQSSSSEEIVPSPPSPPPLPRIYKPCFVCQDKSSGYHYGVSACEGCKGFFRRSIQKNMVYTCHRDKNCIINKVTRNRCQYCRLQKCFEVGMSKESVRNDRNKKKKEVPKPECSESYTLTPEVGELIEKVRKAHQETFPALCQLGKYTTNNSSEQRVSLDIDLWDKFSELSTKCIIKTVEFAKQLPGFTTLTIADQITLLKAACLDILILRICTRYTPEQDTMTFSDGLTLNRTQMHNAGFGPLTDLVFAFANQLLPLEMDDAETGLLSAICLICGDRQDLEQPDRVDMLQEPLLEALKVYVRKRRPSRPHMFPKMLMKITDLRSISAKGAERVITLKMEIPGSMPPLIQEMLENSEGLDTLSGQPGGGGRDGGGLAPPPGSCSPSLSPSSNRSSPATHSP
# From the text: as §1, §2
# RARγ = target: T3, RARγ (Homo sapiens, UniProt P13631); parameters: expressed in transfected cells; host or cells: CV1 cells; settings: read-out: Kd (nanomolar) RARγ
# T3 sequence (P13631 1-454): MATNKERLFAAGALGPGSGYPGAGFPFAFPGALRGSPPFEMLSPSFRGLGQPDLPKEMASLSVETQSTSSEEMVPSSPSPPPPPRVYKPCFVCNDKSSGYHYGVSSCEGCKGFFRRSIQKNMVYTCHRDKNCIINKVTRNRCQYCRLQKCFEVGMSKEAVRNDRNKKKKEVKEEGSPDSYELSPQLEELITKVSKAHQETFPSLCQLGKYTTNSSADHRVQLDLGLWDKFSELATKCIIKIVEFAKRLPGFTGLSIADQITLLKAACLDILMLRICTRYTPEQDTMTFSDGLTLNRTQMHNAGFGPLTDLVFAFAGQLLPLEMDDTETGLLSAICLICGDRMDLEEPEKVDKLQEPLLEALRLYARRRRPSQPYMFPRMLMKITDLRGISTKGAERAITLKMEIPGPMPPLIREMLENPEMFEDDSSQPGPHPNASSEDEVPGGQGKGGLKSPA
# From the text: as §1, §2
SMILES,Kd (RARβ),Kd (RARα),Kd (RARγ)
"Cc1ccc(C2=CCC(C)(C)c3ccc(C#Cc4ccc(C(=O)O)cc4)cc32)cn1 [Compound 18, 4-[(5,6-Dihydro-5,5-dimethyl-8-(2-methyl-5-pyridyl)-2-naphthalenyl)ethynyl]benzoic acid]",11 nM,24 nM,24 nM
"CC1(C)CC=C(c2ccccn2)c2cc(C#Cc3ccc(C(=O)O)cc3)ccc21 [Compound 19, 4-[(5,6-Dihydro-5,5-dimethyl-8-(2-pyridyl)-2-naphthalenyl)ethynyl]benzoic acid]",210 nM,565 nM,659 nM
"Cc1cccc(C2=CCC(C)(C)c3ccc(C#Cc4ccc(C(=O)O)cc4)cc32)c1 [Compound 20, 4-[(5,6-Dihydro-5,5-dimethyl-8-(3-methylphenyl)-2-naphthalenyl)ethynyl]benzoic acid]",22 nM,130 nM,34 nM
"CCc1ccc(C2=CCC(C)(C)c3ccc(C#Cc4ccc(C(=O)O)cc4)cc32)cc1 [Compound 21, 4-[(5,6-Dihydro-5,5-dimethyl-8-(4-ethylphenyl)-2-naphthalenyl)ethynyl]benzoic acid]",9 nM,16 nM,13 nM
"COc1ccc(C2=CCC(C)(C)c3ccc(C#Cc4ccc(C(=O)O)cc4)cc32)cc1 [Compound 22, 4-[(5,6-Dihydro-5,5-dimethyl-8-(4-methoxyphenyl)-2-naphthalenyl)ethynyl]benzoic acid]",17 nM,24 nM,27 nM
"CC1(C)CC=C(c2ccc(C(F)(F)F)cc2)c2cc(C#Cc3ccc(C(=O)O)cc3)ccc21 [Compound 23, 4-[(5,6-Dihydro-5,5-dimethyl-8-(4-trifluoromethylphenyl)-2-naphthalenyl)ethynyl]benzoic acid]",25 nM,32 nM,31 nM
"Cc1cc(C)cc(C2=CCC(C)(C)c3ccc(C#Cc4ccc(C(=O)O)cc4)cc32)c1 [Compound 24, 4-[(5 6-Dihydro-5,5-dimethyl-8-(3,5-dimethylphenyl)-2-naphthalenyl)ethynyl]benzoic acid]",235 nM,699 nM,286 nM
"CC1(C)CC=C(c2ccc(Cl)cc2)c2cc(C#Cc3ccc(C(=O)O)cc3)ccc21 [Compound 25, 4-[(5,6-Dihydro-5,5-dimethyl-8-(4-chlorophenyl)-2-naphthalenyl)ethynyl]benzoic acid]",17 nM,50 nM,20 nM
"CC1(C)CC=C(c2cccnc2)c2cc(C#Cc3ccc(C(=O)O)cc3)ccc21 [Compound 26, 4-[(5,6-Dihydro-5,5-dimethyl-8-(3-pyridyl)-2-naphthalenyl)ethynyl]benzoic acid]",31 nM,40 nM,36 nM
"Cc1ccccc1C1=CCC(C)(C)c2ccc(C#Cc3ccc(C(=O)O)cc3)cc21 [Compound 27, 4-[(5,6-Dihydro-5,5-dimethyl-8-(2-methylphenyl)-2-naphthalenyl)ethynyl]benzoic acid]",14 nM,69 nM,26 nM
"CC1(C)CC=C(c2cccc(O)c2)c2cc(C#Cc3ccc(C(=O)O)cc3)ccc21 [Compound 28, 4-[(5,6-Dihydro5,5-dimethyl-8-(3-hydroxyphenyl)-2-naphthalenyl)ethynyl]benzoic acid]",77 nM,669 nM,236 nM
"CC1(C)CC=C(c2ccc(O)cc2)c2cc(C#Cc3ccc(C(=O)O)cc3)ccc21 [Compound 29, 4-[(5,6-Dihydro-5,5-dimethyl-8-(4-hydroxyphenyl)-2-naphthalenyl)ethynyl]benzoic acid]",48 nM,234 nM,80 nM
"Cc1cnc(C2=CCC(C)(C)c3ccc(C#Cc4ccc(C(=O)O)cc4)cc32)s1 [Compound 30, 4-[(5,6-Dihydro-5,5-dimethyl-8-(5-methylthiazol-2-yl)-2-naphthalenyl)ethynyl]benzoic acid]",141 nM,683 nM,219 nM
"Cc1csc(C2=CCC(C)(C)c3ccc(C#Cc4ccc(C(=O)O)cc4)cc32)n1 [Compound 31, 4-[(5,6-Dihydro-5,5-dimethyl-8-(4-methylthiazol-2-yl)-2-naphthalenyl)ethynyl]benzoic acid]",52 nM,370 nM,100 nM
Cc1nc(C2=CCC(C)(C)c3ccc(C#Cc4ccc(C(=O)O)cc4)cc32)sc1C [Compound 32],89 nM,,169 nM
"Cc1ccc(C2=CCC(C)(C)c3ccc(C#Cc4ccc(C(=O)O)cc4)cc32)s1 [Compound 34, 4-[(5,6-Dihydro-5,5-dimethyl-8-(5-methyl-2-thienyl)-2-naphthalenyl)ethynyl]benzoic acid]",30 nM,52 nM,17 nM
"Cc1ccc(C2=CCC(C)(C)c3ccc(C(=O)Nc4ccc(C(=O)O)cc4)cc32)cc1 [Compound 36, 4-[[(5,6-Dihydro-5,5-dimethyl-8-(4-methylphenyl)-2-naphthalenyl)carbonyl]amino]-benzoic acid]",550 nM,13 nM,
"Cc1ccc(C2=CCC(C)(C)c3ccc(C(=O)Oc4ccc(C(=O)O)cc4)cc32)cc1 [Compound 39, 4-[[(5,6-Dihydro-5,5-dimethyl-8-(4-methylphenyl)-2-naphthalenyl)carbonyl]oxy]-benzoic acid]",38 nM,67 nM,113 nM
"Cc1ccc(C2=CCC(C)(C)c3ccc(C(=O)Nc4ccc(C(=O)O)c(F)c4)cc32)cc1 [Compound 41, 2-Fluoro-4-[[(5,6-dihydro-5,5-dimethyl-8-(4methylphenyl)-2-naphthalenyl)carbonyl]amino]-benzoic acid]",491 nM,5.1 nM,725 nM
Cc1ccc(C2=CCC(C)(C)c3ccc(/C=C/c4ccc(C(=O)O)cc4)cc32)cc1 [Compound 45],2.8 nM,12 nM,17 nM
"Cc1ccc(C2=CCC(C)(C)c3ccc(C(=S)Nc4ccc(C(=O)O)c(F)c4)cc32)cc1 [Compound 63, 2-fluoro-4-[[(5,6-dihydro-5,5-dimethyl-8-(4-methylphenyl)-2-naphthalenyl)thiocarbonyl]amino]-benzoic acid]",3220 nM,133 nM,
